{"source": "PubChem BioAssay (NCI)", "test_system": "SNB-75 CNS", "assay": "DTP human tumour cell line panel, 48 h", "note": "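Assay format: 96-well plates, 48-hour exposure. At the GI50, growth is halved.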", "data": [{"smiles": "C=CC1CC1(CO)COc1cc(Cl)nc(N)n1", "note": "(stereo unspecified)", "values": [{"measurement": "GI50", "value": 86.4, "unit": "µM"}]}]}
